According to patent US10556905B2, “Processes for preparing a diazabicyclooctane compound” (priority 2012, dated 2020):
In brackets after ≈: the same amount, converted by molar mass. Where two headings read alike, the source gives them in different places.

Tests used:
[1] = test system: sensitive tuberculosis (H37Rv); assay: Anti-tubercle bacillus activity, liquid medium dilution MIC; format: cell-based; conditions: for MIC: Mycobacterium tuberculosis, 168 h, alone, 7 days at 37° C., read-out: antibacterial activity (MIC) of β-lactam agent alone
[2] = biological target: T1, KPC-2 (Klebsiella pneumoniae, UniProt Q9F663); assay: β-Lactamase inhibitory activity (nitrocefin hydrolysis), KPC-2; format: biochemical; conditions: KPC-2 0.5 nM, 100 μM nitrocefin, pre-incubation 30° C. 10 minutes
T1 construct: AmpC, TEM-1, KPC-2 or OXA-2 domain excluding signal peptide was amplified with PCR; made in house; host or cells: Escherichia coli BL21 (DE3), pET-28b(+)
T1 sequence (Q9F663 25-293, looked up): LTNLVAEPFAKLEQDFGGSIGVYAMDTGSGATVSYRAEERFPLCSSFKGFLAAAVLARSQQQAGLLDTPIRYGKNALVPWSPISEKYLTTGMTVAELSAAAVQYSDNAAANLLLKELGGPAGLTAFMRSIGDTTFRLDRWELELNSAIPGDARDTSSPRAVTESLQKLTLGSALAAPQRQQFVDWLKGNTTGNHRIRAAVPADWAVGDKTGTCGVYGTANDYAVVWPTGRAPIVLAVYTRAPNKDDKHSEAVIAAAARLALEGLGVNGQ

[3] = biological target: T2, TEM-1 (Escherichia coli, UniProt P62593); assay: β-Lactamase inhibitory activity (nitrocefin hydrolysis), TEM-1; format: biochemical; conditions: TEM-1 0.1 nM, 100 μM nitrocefin, pre-incubation 30° C. 10 minutes
T2 construct: AmpC, TEM-1, KPC-2 or OXA-2 domain excluding signal peptide was amplified with PCR; made in house; host or cells: Escherichia coli BL21 (DE3), pET-28b(+)
T2 sequence (P62593 24-286 limits assumed): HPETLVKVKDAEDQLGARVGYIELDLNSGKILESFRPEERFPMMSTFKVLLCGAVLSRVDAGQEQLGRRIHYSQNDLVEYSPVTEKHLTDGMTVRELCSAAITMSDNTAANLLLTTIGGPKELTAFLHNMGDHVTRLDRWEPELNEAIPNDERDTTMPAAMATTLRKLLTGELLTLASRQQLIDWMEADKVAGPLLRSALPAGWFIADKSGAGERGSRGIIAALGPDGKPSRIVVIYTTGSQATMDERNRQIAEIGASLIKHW
Method in brief: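 Recombinant TEM-1 (signal peptide removed), expressed in E. coli BL21(DE3), hydrolysing 100 μM nitrocefin (final) in 50 mM phosphate pH 7.0 with 2.5% DMSO and 10 μg/mL BSA. Incubated 20 min at 30° C; A492 read. Potency given as bands A (<0.1 μM) to E (≥10 μM).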

[4] = biological target: T3, OXA-2 (Escherichia coli, UniProt P0A1V9); assay: biochemical; parameters: species or system P. aeruginosa
T3 construct: AmpC, TEM-1, KPC-2 or OXA-2 domain excluding signal peptide was amplified with PCR; made in house; host or cells: Escherichia coli BL21 (DE3), pET-28b(+)
T3 sequence (P0A1V9 22-275): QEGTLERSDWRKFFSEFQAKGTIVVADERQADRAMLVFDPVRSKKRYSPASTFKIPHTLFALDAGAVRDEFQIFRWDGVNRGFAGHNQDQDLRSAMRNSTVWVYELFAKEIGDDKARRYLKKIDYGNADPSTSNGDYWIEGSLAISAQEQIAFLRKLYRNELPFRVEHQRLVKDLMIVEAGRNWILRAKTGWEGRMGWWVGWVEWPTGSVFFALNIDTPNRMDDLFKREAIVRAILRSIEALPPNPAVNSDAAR

[5] = biological target: T4, AmpC (Pseudomonas aeruginosa, UniProt P24735); assay: biochemical
T4 construct: AmpC, TEM-1, KPC-2 or OXA-2 domain excluding signal peptide was amplified with PCR; made in house; host or cells: Escherichia coli BL21 (DE3), pET-28b(+)
T4 sequence (P24735 27-397): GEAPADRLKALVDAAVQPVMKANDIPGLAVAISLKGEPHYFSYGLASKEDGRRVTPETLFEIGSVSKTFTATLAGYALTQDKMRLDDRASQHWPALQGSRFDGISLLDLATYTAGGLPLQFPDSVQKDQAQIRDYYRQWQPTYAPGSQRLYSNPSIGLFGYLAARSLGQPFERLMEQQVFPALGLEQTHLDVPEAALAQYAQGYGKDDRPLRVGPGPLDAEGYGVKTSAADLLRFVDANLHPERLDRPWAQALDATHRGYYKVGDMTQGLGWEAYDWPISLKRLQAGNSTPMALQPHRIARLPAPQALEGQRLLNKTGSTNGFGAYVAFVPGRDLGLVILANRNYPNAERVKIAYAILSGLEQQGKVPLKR

[6] = test system: P. aeruginosa ATCCBAA-47CR; assay: microbe, parasite or virus in culture; format: cell-based; conditions: Pseudomonas aeruginosa, ATCCBAA47CR; alone; AmpC constitutively-expressing P. aeruginosa; agar plate dilution; read-out: antibacterial activity (MIC) of PIPC alone
[7] = test system: E. coli MSC19503; assay: microbe, parasite or virus in culture; format: cell-based; conditions: Escherichia coli, alone, CTX-M-15 (ESBL) and OXA-1 producing E. coli, agar plate dilution, read-out: antibacterial activity (MIC) of PIPC alone
[8] = test system: K. pneumoniae ATCCBAA-1705; assay: microbe, parasite or virus in culture; conditions: Klebsiella pneumoniae, ATCCBAA1705, read-out: antibacterial activity (MIC) of PIPC alone
[9] = OXA-2 2 nM, 100 μM nitrocefin, pre-incubation 30° C. 10 minutes, read-out: β-Lactamase inhibitory activity OXA-2 (IC50)

CC1(C)S[C@@H]2[C@H](NC(=O)[C@H](N)c3ccccc3)C(=O)N2[C@H]1C(=O)O [ABPC, ampicillin, reference compound]
MIC [1]: 16 µg/mL (≈ 45.8 µM)

CC1(C)S[C@@H]2[C@H](NC(=O)[C@H](N)c3ccc(O)cc3)C(=O)N2[C@H]1C(=O)O [AMPC, amoxicillin, reference compound]
MIC [1]: 16 µg/mL (≈ 43.8 µM)

C[C@@H](O)[C@H]1C(=O)N2C(C(=O)[O-])=C(SC3Cn4cnc[n+]4C3)[C@H](C)[C@H]12 (stereo partly shown) [BIPM, biapenem, reference compound]
MIC [1]: 1 µg/mL (≈ 2.85 µM)

NCCONC(=O)[C@@H]1CC[C@@H]2CN1C(=O)N2OS(=O)(=O)O [Example 59, (2S,5R)—N-(2-Aminoethoxy)-7-oxo-6-(sulfooxy)-1,6-diazabicyclo[3.2.1]octane-2-carboxamide]
IC50 [2]: 100 to 1000 nM
antibacterial activity (MIC) of ABPC in combinatorial use ([1]; ABPC + 4 μg/mL compound): 2 µg/mL
antibacterial activity (MIC) of AMPC in combinatorial use ([1]; AMPC + 4 μg/mL compound): 2 µg/mL
antibacterial activity (MIC) of BIPM in combinatorial use ([1]; BIPM + 4 μg/mL compound): 1 µg/mL
antibacterial activity (MIC) of MEPM in combinatorial use ([1]; MEPM + 4 μg/mL compound): 0.5 µg/mL
antibacterial activity (MIC) of TBPM in combinatorial use ([1]; TBPM + 4 μg/mL compound): 0.25 µg/mL
IC50 [3]: < 100 nM
IC50 [4, 9]: 1000 to 3000 nM
IC50 [5]: 100 to 1000 nM

O=C(NOCCn1cccc1)[C@@H]1CC[C@@H]2CN1C(=O)N2OS(=O)(=O)O [Example 87, Sodium (2S,5R)-7-oxo-N-[2-(1H-pyrrol-1-yl)ethoxy]-6-(sulfooxy)-1,6-diazabicyclo[3.2.1]octane-2-carboxamide]
IC50 [2]: < 100 nM
IC50 [3]: < 100 nM
IC50 [4]: 100 to 1000 nM
IC50 [5]: < 100 nM

O=C(NOCCn1ccnc1S(=O)(=O)O)[C@@H]1CC[C@@H]2CN1C(=O)N2OS(=O)(=O)O [Example 88, Disodium 1-{2-[({[(2S,5R)-7-oxo-6-(sulfonateoxy)-1,6-diazabicyclo[3.2.1]oct-2-yl]carbonyl}amino)oxy]ethyl}-1H-Imidazol-2-sulfonate]
IC50 [2]: 100 to 1000 nM
IC50 [3]: < 100 nM
IC50 [4, 9]: 100 to 1000 nM
IC50 [5]: 100 to 1000 nM

CN(C)C(=O)CONC(=O)[C@@H]1CC[C@@H]2CN1C(=O)N2OS(=O)(=O)O [Example 89, Sodium (2S,5R)—N-[2-(dimethylamino)-2-oxoethoxy]-7-oxo-6-(sulfooxy)-1,6-diazabicyclo[3.2.1]octane-2-carboxamide]
IC50 [2]: < 100 nM
IC50 [3]: < 100 nM
IC50 [4]: 100 to 1000 nM
IC50 [5]: < 100 nM

O=C(NOCC(=O)N1CCNCC1)[C@@H]1CC[C@@H]2CN1C(=O)N2OS(=O)(=O)O [Example 90, (2S,5R)-7-Oxo-N-[2-oxo-2-(piperazin-1-yl)ethoxy]-6-(sulfooxy)-1,6-diazabicyclo[3.2.1]octane-2-carboxamide]
IC50 [2]: 100 to 1000 nM
IC50 [3]: < 100 nM
IC50 [4, 9]: 100 to 1000 nM
IC50 [5]: < 100 nM

O=C(NOCC(=O)N1CCOCC1)[C@@H]1CC[C@@H]2CN1C(=O)N2OS(=O)(=O)O [Example 91, Sodium (2S,5R)—N-[2-(morpholin-4-yl)-2-oxoethoxy]-7-oxo-6-(sulfooxy)-1,6-diazabicyclo[3.2.1]octane-2-carboxamide]
IC50 [2]: < 100 nM
IC50 [3]: < 100 nM
IC50 [4]: 100 to 1000 nM
IC50 [5]: < 100 nM

O=C(NOCC(=O)N1CCCNCC1)[C@@H]1CC[C@@H]2CN1C(=O)N2OS(=O)(=O)O [Example 92, (2S,5R)—N-[2-(1,4-Diazepan-1-yl)-2-oxoethoxy]-7-oxo-6-(sulfooxy)-1,6-diazabicyclo[3.2.1]octane-2-carboxamide]
IC50 [2]: 100 to 1000 nM
IC50 [3]: < 100 nM
IC50 [4, 9]: 100 to 1000 nM
IC50 [5]: < 100 nM

O=C(NOCCN1CCCC1=O)[C@@H]1CC[C@@H]2CN1C(=O)N2OS(=O)(=O)O [Example 93, Sodium (2S,5R)-7-oxo-N-[2-(2-oxopyrrolidin-1-yl)ethoxy]-6-(sulfooxy)-1,6-diazabicyclo[3.2.1]octane-2-carboxamide]
IC50 [2]: 100 to 1000 nM
IC50 [3]: < 100 nM
IC50 [4]: 100 to 1000 nM
IC50 [5]: < 100 nM

O=C(NOCCN1CCNC1=O)[C@@H]1CC[C@@H]2CN1C(=O)N2OS(=O)(=O)O [Example 94, Sodium (2S,5R)-7-oxo-N-[2-(2-oxoimidazolidin-1-yl)ethoxy]-6-(sulfooxy)-1,6-diazabicyclo[3.2.1]octane-2-carboxamide]
IC50 [2]: 100 to 1000 nM
IC50 [3]: < 100 nM
IC50 [4]: 100 to 1000 nM
IC50 [5]: < 100 nM

O=C(NOCCO)[C@@H]1CC[C@@H]2CN1C(=O)N2OS(=O)(=O)O [Example 95, Sodium (2S,5R)—N-(2-hydroxyethoxy)-7-oxo-6-(sulfooxy)-1,6-diazabicyclo[3.2.1]octane-2-carboxamide]
IC50 [2]: < 100 nM
IC50 [3]: < 100 nM
IC50 [4]: 1000 to 3000 nM
IC50 [5]: < 100 nM

COCCONC(=O)[C@@H]1CC[C@@H]2CN1C(=O)N2OS(=O)(=O)O [Example 96, Sodium (2S,5R)—N-(2-methoxyethoxy)-7-oxo-6-(sulfooxy)-1,6-diazabicyclo[3.2.1]octane-2-carboxamide]
IC50 [2]: 100 to 1000 nM
IC50 [3]: < 100 nM
IC50 [4]: 1000 to 3000 nM
IC50 [5]: < 100 nM

CS(=O)(=O)CCONC(=O)[C@@H]1CC[C@@H]2CN1C(=O)N2OS(=O)(=O)O [Example 97, Sodium (2S,5R)—N-[2-(methylsulfonyl)ethoxy]-7-oxo-6-(sulfooxy)-1,6-diazabicyclo[3.2.1]octane-2-carboxamide]
IC50 [2]: < 100 nM
IC50 [3]: < 100 nM
IC50 [4]: 100 to 1000 nM
IC50 [5]: < 100 nM

C[C@@H](O)[C@H]1C(=O)N2C(C(=O)O)=C(S[C@@H]3CN[C@H](C(=O)N(C)C)C3)[C@H](C)[C@H]12 [MEPM, meropenem, reference compound]
MIC [1]: 1 µg/mL (≈ 2.61 µM)

CCN1CCN(C(=O)N[C@@H](C(=O)N[C@@H]2C(=O)N3[C@@H]2SC(C)(C)[C@@H]3C(=O)O)c2ccccc2)C(=O)C1=O [PIPC, piperacillin]
MIC [6]: 64 µg/mL (≈ 124 µM)
MIC [7]: > 128 µg/mL
MIC [8]: > 128 µg/mL

C[C@@H](O)[C@H]1C(=O)N2C(C(=O)O)=C(SC3CN(C4=NCCS4)C3)[C@H](C)[C@H]12 [TBPM, tebipenem, reference compound]
MIC [1]: 0.5 µg/mL (≈ 1.3 µM)
